Data from US12102635B2, “Methods of using protein palmitoylations inhibitors” (priority 2021, dated 2024).
Where “and” joins values, the source holds several entries; their conditions need not be identical. Equal values may be shown once.

What was measured:
SARS-CoV-2-mNG = type: cell-based
SARS-CoV-2 spike protein [1] = type: cell-based, human
SARS-CoV-2 spike protein [2] = type: cell-based
HEK293T cells = details: for observable toxicity: XTT, concentrations below 3 μM, relative to DMSO
[3] = tested on: SARS-COV-2 spike pseudotyped lentivirus; type: cell-based
SARS-CoV-2 = type: cell-based
Caco-2 cells = details: XTT, concentrations below 3 μM, relative to DMSO
yeast homolog of DHHC9 = target: T1, yeast homolog of DHHC9 (Saccharomyces cerevisiae, UniProt Q06551); details: previous screen; cited from earlier work
T1 sequence (Q06551 1-359): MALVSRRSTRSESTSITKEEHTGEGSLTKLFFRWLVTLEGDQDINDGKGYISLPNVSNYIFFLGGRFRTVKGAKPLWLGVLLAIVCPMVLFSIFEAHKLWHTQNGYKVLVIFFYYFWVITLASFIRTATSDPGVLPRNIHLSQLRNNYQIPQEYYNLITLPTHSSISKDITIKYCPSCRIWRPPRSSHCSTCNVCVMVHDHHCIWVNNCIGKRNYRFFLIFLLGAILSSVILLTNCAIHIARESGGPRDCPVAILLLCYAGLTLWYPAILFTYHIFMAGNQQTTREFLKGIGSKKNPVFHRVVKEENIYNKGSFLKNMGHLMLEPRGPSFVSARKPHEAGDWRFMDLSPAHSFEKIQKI
T1 sequence (P41912 1-237 partner): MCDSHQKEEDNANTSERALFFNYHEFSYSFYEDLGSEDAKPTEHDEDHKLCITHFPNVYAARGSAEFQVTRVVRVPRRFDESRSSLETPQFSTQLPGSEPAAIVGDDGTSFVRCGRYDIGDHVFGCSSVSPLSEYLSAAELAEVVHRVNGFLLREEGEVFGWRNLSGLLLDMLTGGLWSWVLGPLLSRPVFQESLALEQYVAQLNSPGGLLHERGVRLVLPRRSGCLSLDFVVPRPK

[4] = tested on: SARS-COV-2 spike pseudotyped lentivirus; type: cell-based; remark: listed apart in the source
[5] = tested on: SARS-COV-2 spike pseudotyped lentivirus; type: cell-based; remark: listed apart in the source
GAPDH = type: cell-based, human; details: 10 μM, HEK293T cells

Structure (SMILES) | mNeonGreen signal (SARS-CoV-2-mNG) | reduction in syncytia formation (SARS-CoV-2 spike protein [1]) | reduction of palmitoylation of the spike protein (SARS-CoV-2 spike protein [2]) [%] | maximal non-toxic concentration (HEK293T cells) [µM] | observable toxicity (HEK293T cells) | quantity of pseudovirus released from the producer cells (egress) [3] | reduction viral infection of Vero-E6 cells (SARS-CoV-2) [%] | observable toxicity (Caco-2 cells) | inhibition of palmitoylation (yeast homolog of DHHC9) | luciferase signal (pseudovirus infection) [4] | pseudovirus infection (luciferase) [5] | spike palmitoylation (SARS-CoV-2 spike protein [2]) | GAPDH palmitoylation (GAPDH)
CC(C)Cc1ccc(C(C)CN2CCN(CCCC[C@H]3CNCCN3CCc3cc(C(F)(F)F)cc(C(F)(F)F)c3)C[C@@H]2Cc2ccc(O)cc2)cc1 (stereo partly drawn) [Compound 3, 4-(((2S)-4-(4-((S)-1-(3,5-bis(trifluoromethyl)phenethyl)piperazin-2-yl)butyl)-1-(2-(4-isobutylphenyl)propyl)piperazin-2-yl)methyl) phenol] | dose dependent reduction in mNeonGreen signal | 45% and 50% | 44 | 3 | no observable toxicity | do not reduce the quantity of pseudovirus released | 76 | no observable toxicity | low micromolar concentrations | – | – | – | –
CCCCCCCCCCCCCCC(Br)C(=O)O (centres unmarked) [Compound 2-BP, 2-bromopalmitic acid, reference compound] | dose dependent reduction in mNeonGreen signal | – | – | – | – | – | – | – | – | reduced luciferase signal significantly | significant reduction in pseudovirus infection | inhibited spike palmitoylation | reduced
CC(C)Cc1ccc(C(C)CN2CCNC[C@@H]2CCCCN2CCN(CC(C)c3ccc(CC(C)C)cc3)[C@@H](Cc3ccc(O)cc3)C2)cc1 (stereo partly drawn) [Compound 2, 4-(((2S)-1-(2-(4-isobutylphenyl)propyl)-4-(4-((2S)-1-(2-(4-isobutylphenyl)propyl)piperazin-2-yl)butyl)piperazin-2-yl)methyl) phenol] | dose dependent reduction in mNeonGreen signal | 58% and 60% | 37 | 3 | no observable toxicity | do not reduce the quantity of pseudovirus released | 60 | no observable toxicity | low micromolar concentrations | – | – | – | –
